Where no end group is shown, it is not given here. [ ]: non-standard residue; d: D form. Tyr(3-Cl) = N[C@@H](Cc1ccc(O)c(Cl)c1)C(=O)O; Phe(4-Me) = Cc1ccc(C[C@H](N)C(=O)O)cc1; Nle = CCCC[C@H](N)C(=O)O; Ac5c = NC1(C(=O)O)CCCC1; Aib = CC(C)(N)C(=O)O
How the values were obtained:
insulin secretion = assay: Determination of in vivo insulin secretion in normal rats; settings: fasted male Sprague Dawley rats, compound iv with glucose (1 g/kg), plasma insulin up to 20 minutes post-glucose
Method: D. Determination of in vivo Insulin Secretion in Normal Rats Male Sprague Dawley rats with a body weight of approximately 275-300 g were used as experimental subjects. The day prior to the treatment, right atrial cannulae were implanted via the jugular vein under chlorohydrate. Each cannula was filled with 100 u/ml heparin saline and tied. […] The day of the experiment, aliquots of compound were thawed, brought to room temperature and vortexed thoroughly. […] At time 0, a 500 μl blood sample was withdrawn through the cannula. Next, either the vehicle or the appropriate dose of the compound was injected into the cannula and pushed in with the glucose (1 g/kg) or vehicle solution. Finally, 500 μl of volume of heparinized saline (10 u/ml) was used to push in the remaining glucose through the cannula. […] The plasma was collected from the blood samples by centrifugation, and stored at −20° C. until assay for insulin content.

[1] = target: T1, human recombinant GIP receptor (Homo sapiens, UniProt P48546); assay: In vitro hGIP receptor binding assay
T1 construct: expressed in transfected cells; host or cells: CHO-K1 clonal cells (membrane preparation)
T1 sequence (P48546 22-466): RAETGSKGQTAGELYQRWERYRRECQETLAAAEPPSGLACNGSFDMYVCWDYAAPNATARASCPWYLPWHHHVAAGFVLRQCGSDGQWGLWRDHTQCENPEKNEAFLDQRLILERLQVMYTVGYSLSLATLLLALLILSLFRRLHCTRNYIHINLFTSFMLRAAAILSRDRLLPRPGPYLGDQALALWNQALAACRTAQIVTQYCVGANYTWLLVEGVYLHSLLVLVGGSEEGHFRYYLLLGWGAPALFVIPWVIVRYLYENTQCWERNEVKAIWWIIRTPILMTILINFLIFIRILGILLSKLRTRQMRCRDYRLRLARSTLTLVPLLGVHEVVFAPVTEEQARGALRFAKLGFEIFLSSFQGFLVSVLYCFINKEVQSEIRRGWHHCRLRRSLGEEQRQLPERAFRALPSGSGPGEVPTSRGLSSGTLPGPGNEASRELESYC
Method: A. In Vitro hGIP Receptor Binding Assay […] The incubations were terminated by rapid filtration through GF/C filters (pre-soaked in 0.5% polyethylenimine) using a Brandel filtration manifold. Each tube and filter were then washed three times with 5-ml aliquots of ice-cold buffer.

[2] = Human plasma half-life assay; assay type: in vitro ADME; settings: 37° C., LC-MS, read-out: Human Plasma T½ (converted)
[3] = Rat plasma half-life assay; assay type: in vitro ADME; settings: 37° C., LC-MS, read-out: Rat Plasma T½ (converted)

In the case of “H-[Tyr(3-Cl)][Aib]EGTFISDY[Ac5c]IA[Nle]DKIHQQDFVNWLLAQKGKKNDWKHNITQ-OH [Example 14, (3Cl-Tyr^1, Aib^2, A5c^11, Nle^14)hGIP(1-42)-OH]”, the “AUC (total insulin secretion)” value (insulin secretion) is reported as 189.54, the Ki [1] is reported as 0.42 nM and the half-life at 0.1 mg/ml [2] is reported as 52.1 h. For the same compound, the half-life at 0.1 mg/ml [3] was 27.4 h.
In the case of `CC[C@H](C)[C@H](NC(=O)[C@H](CCCCN)NC(=O)[C@H](CC(=O)O)NC(=O)[C@H](CCSC)NC(=O)[C@H](C)NC(=O)[C@@H](NC(=O)C1(NC(=O)[C@H](Cc2ccc(O)cc2)NC(=O)[C@H](CC(=O)O)NC(=O)[C@H](CO)NC(=O)[C@@H](NC(=O)[C@H](Cc2ccccc2)NC(=O)[C@@H](NC(=O)CNC(=O)[C@H](CCC(=O)O)NC(=O)C(C)(C)NC(=O)[C@@H](N)Cc2ccc(O)c(OC)c2)[C@@H](C)O)[C@@H](C)CC)CCCC1)[C@@H](C)CC)C(=O)N[C@@H](Cc1c[nH]cn1)C(=O)N[C@@H](CCC(N)=O)C(=O)N[C@@H](CCC(N)=O)C(=O)N[C@@H](CC(=O)O)C(=O)N[C@@H](Cc1ccccc1)C(=O)N[C@H](C(=O)N[C@@H](CC(N)=O)C(=O)N[C@@H](Cc1c[nH]c2ccccc12)C(=O)N[C@@H](CC(C)C)C(=O)N[C@@H](CC(C)C)C(=O)N[C@@H](C)C(=O)N[C@@H](CCC(N)=O)C(=O)N[C@@H](CCCCN)C(=O)NCC(=O)N[C@@H](CCCCN)C(=O)N[C@@H](CCCCN)C(=O)N[C@@H](CC(N)=O)C(=O)N[C@@H](CC(=O)O)C(=O)N[C@@H](Cc1c[nH]c2ccccc12)C(=O)N[C@@H](CCCCN)C(=O)N[C@@H](Cc1c[nH]cn1)C(=O)N[C@@H](CC(N)=O)C(=O)N[C@H](C(=O)NC1(C(=O)N[C@@H](CCC(N)=O)C(=O)O)CCCC1)[C@@H](C)CC)C(C)C` [Example 28, (3MeO-Tyr^1, Aib^2, A5c^11, 41)hGIP(1-42)-OH], the “AUC (total insulin secretion)” value (insulin secretion) is reported as 92.88, the Ki [1] is reported as 1.24 nM and the half-life at 0.1 mg/ml [2] is reported as > 57 h. It also gave a half-life at 0.1 mg/ml [3] of 10 h.
In the case of `CC[C@H](C)[C@H](NC(=O)[C@H](CCCCN)NC(=O)[C@H](CC(=O)O)NC(=O)[C@H](CCSC)NC(=O)[C@H](C)NC(=O)[C@@H](NC(=O)C1(NC(=O)[C@H](Cc2ccc(O)cc2)NC(=O)[C@H](CC(=O)O)NC(=O)[C@H](CO)NC(=O)[C@@H](NC(=O)[C@H](Cc2ccccc2)NC(=O)[C@@H](NC(=O)CNC(=O)[C@H](CCC(=O)O)NC(=O)C(C)(C)NC(=O)[C@@H](N)Cc2ccc(O)c([N+](=O)[O-])c2)[C@@H](C)O)[C@@H](C)CC)CCCC1)[C@@H](C)CC)C(=O)N[C@@H](Cc1c[nH]cn1)C(=O)N[C@@H](CCC(N)=O)C(=O)N[C@@H](CCC(N)=O)C(=O)N[C@@H](CC(=O)O)C(=O)N[C@@H](Cc1ccccc1)C(=O)N[C@H](C(=O)N[C@@H](CC(N)=O)C(=O)N[C@@H](Cc1c[nH]c2ccccc12)C(=O)N[C@@H](CC(C)C)C(=O)N[C@@H](CC(C)C)C(=O)N[C@@H](C)C(=O)N[C@@H](CCC(N)=O)C(=O)N[C@@H](CCCCN)C(=O)NCC(=O)N[C@@H](CCCCN)C(=O)N[C@@H](CCCCN)C(=O)N[C@@H](CC(N)=O)C(=O)N[C@@H](CC(=O)O)C(=O)N[C@@H](Cc1c[nH]c2ccccc12)C(=O)N[C@@H](CCCCN)C(=O)N[C@@H](Cc1c[nH]cn1)C(=O)N[C@@H](CC(N)=O)C(=O)N[C@H](C(=O)NC1(C(=O)N[C@@H](CCC(N)=O)C(=O)O)CCCC1)[C@@H](C)CC)C(C)C` [Example 36, (3NO2-Tyr^1, Aib^2, A5c^11, 41)hGIP(1-42)-OH], the Ki [1] is reported as 11.2 nM, the half-life at 0.1 mg/ml [2] is reported as > 72 h and the half-life at 0.1 mg/ml [3] is reported as 11.7 h.
In the case of `CC[C@H](C)[C@H](NC(=O)[C@H](CCCCN)NC(=O)[C@H](CC(=O)O)NC(=O)[C@H](CCSC)NC(=O)[C@H](C)NC(=O)[C@@H](NC(=O)C1(NC(=O)[C@H](Cc2ccc(O)cc2)NC(=O)[C@H](CC(=O)O)NC(=O)[C@H](CO)NC(=O)[C@@H](NC(=O)[C@H](Cc2ccccc2)NC(=O)[C@@H](NC(=O)CNC(=O)[C@H](CCC(=O)O)NC(=O)C(C)(C)NC(=O)[C@@H](N)Cc2ccc(OC(C)=O)cc2)[C@@H](C)O)[C@@H](C)CC)CCCC1)[C@@H](C)CC)C(=O)N[C@@H](Cc1c[nH]cn1)C(=O)N[C@@H](CCC(N)=O)C(=O)N[C@@H](CCC(N)=O)C(=O)N[C@@H](CC(=O)O)C(=O)N[C@@H](Cc1ccccc1)C(=O)N[C@H](C(=O)N[C@@H](CC(N)=O)C(=O)N[C@@H](Cc1c[nH]c2ccccc12)C(=O)N[C@@H](CC(C)C)C(=O)N[C@@H](CC(C)C)C(=O)N[C@@H](C)C(=O)N[C@@H](CCC(N)=O)C(=O)N[C@@H](CCCCN)C(=O)NCC(=O)N[C@@H](CCCCN)C(=O)N[C@@H](CCCCN)C(=O)N[C@@H](CC(N)=O)C(=O)N[C@@H](CC(=O)O)C(=O)N[C@@H](Cc1c[nH]c2ccccc12)C(=O)N[C@@H](CCCCN)C(=O)N[C@@H](Cc1c[nH]cn1)C(=O)N[C@@H](CC(N)=O)C(=O)N[C@H](C(=O)NC1(C(=O)N[C@@H](CCC(N)=O)C(=O)O)CCCC1)[C@@H](C)CC)C(C)C` [Example 29, [Tyr(Ac)^1, Aib^2, A5c^11, 41]hGIP(1-42)-OH], the Ki [1] is reported as 0.73 nM, the half-life at 0.1 mg/ml [2] is reported as 29.5 h and the half-life at 0.1 mg/ml [3] is reported as 18.9 h.
In the case of `CC[C@H](C)[C@H](NC(=O)[C@H](CCCCN)NC(=O)[C@H](CC(=O)O)NC(=O)[C@H](CCSC)NC(=O)[C@H](C)NC(=O)[C@@H](NC(=O)C1(NC(=O)[C@H](Cc2ccc(O)cc2)NC(=O)[C@H](CC(=O)O)NC(=O)[C@H](CO)NC(=O)[C@@H](NC(=O)[C@H](Cc2ccccc2)NC(=O)[C@@H](NC(=O)CNC(=O)[C@H](CCC(=O)O)NC(=O)C(C)(C)NC(=O)[C@@H](N)Cc2ccc(C#N)cc2)[C@@H](C)O)[C@@H](C)CC)CCCC1)[C@@H](C)CC)C(=O)N[C@@H](Cc1c[nH]cn1)C(=O)N[C@@H](CCC(N)=O)C(=O)N[C@@H](CCC(N)=O)C(=O)N[C@@H](CC(=O)O)C(=O)N[C@@H](Cc1ccccc1)C(=O)N[C@H](C(=O)N[C@@H](CC(N)=O)C(=O)N[C@@H](Cc1c[nH]c2ccccc12)C(=O)N[C@@H](CC(C)C)C(=O)N[C@@H](CC(C)C)C(=O)N[C@@H](C)C(=O)N[C@@H](CCC(N)=O)C(=O)N[C@@H](CCCCN)C(=O)NCC(=O)N[C@@H](CCCCN)C(=O)N[C@@H](CCCCN)C(=O)N[C@@H](CC(N)=O)C(=O)N[C@@H](CC(=O)O)C(=O)N[C@@H](Cc1c[nH]c2ccccc12)C(=O)N[C@@H](CCCCN)C(=O)N[C@@H](Cc1c[nH]cn1)C(=O)N[C@@H](CC(N)=O)C(=O)N[C@H](C(=O)NC1(C(=O)N[C@@H](CCC(N)=O)C(=O)O)CCCC1)[C@@H](C)CC)C(C)C` [Example 38, (4CN-Phe^1, Aib^2, A5c^11, 41)hGIP(1-42)-OH], the Ki [1] is reported as 14.4 nM, the half-life at 0.1 mg/ml [2] is reported as 16.4 h and the half-life at 0.1 mg/ml [3] is reported as > 72 h.
In the case of “[Phe(4-Me)][Aib]EGTFISDY[Ac5c]IAMDKIHQQDFVNWLLAQKGKKNDWKHNITQH-OH [Example 78, (4Me-Phe^1, Aib^2, A5c^11, His^43)hGIP(1-43)-OH]”, the Ki [1] is reported as 9.13 nM, the half-life at 0.1 mg/ml [2] is reported as 14.9 h and the half-life at 0.1 mg/ml [3] is reported as > 52 h.
Compound `CCCC[C@H](NC(=O)[C@H](C)NC(=O)[C@@H](NC(=O)C1(NC(=O)[C@H](Cc2ccc(O)cc2)NC(=O)[C@H](CC(=O)O)NC(=O)[C@H](CO)NC(=O)[C@@H](NC(=O)[C@H](Cc2ccccc2)NC(=O)[C@@H](NC(=O)CNC(=O)[C@H](CCC(=O)O)NC(=O)C(C)(C)NC(=O)[C@@H](N)Cc2c[nH]cn2)[C@@H](C)O)[C@@H](C)CC)CCCC1)[C@@H](C)CC)C(=O)N[C@@H](CC(=O)O)C(=O)N[C@@H](CCCCN)C(=O)N[C@H](C(=O)N[C@@H](Cc1c[nH]cn1)C(=O)N[C@@H](CCC(N)=O)C(=O)N[C@@H](CCC(N)=O)C(=O)N[C@@H](CC(=O)O)C(=O)N[C@@H](Cc1ccccc1)C(=O)N[C@H](C(=O)N[C@@H](CC(N)=O)C(=O)N[C@@H](Cc1c[nH]c2ccccc12)C(=O)N[C@@H](CC(C)C)C(=O)N[C@@H](CC(C)C)C(=O)N[C@@H](C)C(=O)N[C@@H](CCC(N)=O)C(=O)N[C@@H](CCCCN)C(=O)NCC(=O)N[C@@H](CCCCN)C(=O)N[C@@H](CCCCN)C(=O)N[C@@H](CC(N)=O)C(=O)N[C@@H](CC(=O)O)C(=O)N[C@@H](Cc1c[nH]c2ccccc12)C(=O)N[C@@H](CCCCN)C(=O)N[C@@H](Cc1c[nH]cn1)C(=O)N[C@@H](CC(N)=O)C(=O)N[C@H](C(=O)N[C@H](C(=O)N[C@@H](CCC(N)=O)C(=O)O)[C@@H](C)O)[C@@H](C)CC)C(C)C)[C@@H](C)CC` [Example 12, (His^1, Aib^2, A5c^11, Nle^14)hGIP(1-42)-OH] has a Ki [1] of 3.18 nM, a half-life at 0.1 mg/ml [2] of 82.5 h and a half-life at 0.1 mg/ml [3] of 11 h.
